Data as given in ChEMBL document CHEMBL3046623, “A search of novel antimicrobial based on benzimidazole and 2-pyridone heterocycles” (2012).
Converted amounts (≈) assume the structure as drawn.

How the values were obtained:
Assay type in all cases: functional
Staphylococcus aureus = test: Antibacterial activity against Staphylococcus aureus MTCC 96 after 24 to 48 hr by serial dilution method
Aspergillus niger = test: Antifungal activity against Aspergillus niger MTCC 282 after 72 hr; conditions: MTCC 282, 72 h
Escherichia coli = test: Antibacterial activity against Escherichia coli MTCC 443 after 24 to 48 hr by serial dilution method
Streptococcus pyogenes = test: Antibacterial activity against Streptococcus pyogenes MTCC 442 after 24 to 48 hr by serial dilution method
Candida albicans = test: Antifungal activity against Candida albicans MTCC 227 after 72 hr; conditions: MTCC 227, 72 h
Aspergillus clavatus = test: Antifungal activity against Aspergillus clavatus MTCC 1323 after 72 hr; conditions: MTCC 1323, 72 h
Pseudomonas aeruginosa = test: Antibacterial activity against Pseudomonas aeruginosa MTCC 1688 after 24 to 48 hr by serial dilution method

Q: `C/C(=N\n1c(/N=C/c2cccc(O)c2)c(C#N)c(-c2ccccc2O)c(C#N)c1=O)c1nc2ccccc2[nH]1` was tested. Which MIC99 (Staphylococcus aureus) did it give?
A: 200 µg/mL (≈ 389 µM)

Q: What about the MIC99 (Aspergillus niger) of the same compound?
A: 1000 µg/mL (≈ 1950 µM)

Q: What about the MIC99 (Escherichia coli) of the same compound?
A: 250 µg/mL (≈ 487 µM)

Q: And the MIC99 (Streptococcus pyogenes)?
A: 500 µg/mL (≈ 974 µM)

Q: What about the MIC99 (Candida albicans) of the same compound?
A: 500 µg/mL (≈ 974 µM)

Q: What about the MIC99 (Aspergillus clavatus) of the same compound?
A: 1000 µg/mL (≈ 1950 µM)

Q: And the MIC99 (Pseudomonas aeruginosa)?
A: 250 µg/mL (≈ 487 µM)

Q: With `C/C(=N\n1c(/N=C/c2ccc(Cl)cc2)c(C#N)c(-c2ccccc2O)c(C#N)c1=O)c1nc2ccccc2[nH]1` as the compound, how does the MIC99 (Staphylococcus aureus) read?
A: 100 µg/mL (≈ 188 µM)

Q: What about the MIC99 (Aspergillus niger) of the same compound?
A: 1000 µg/mL (≈ 1880 µM)

Q: What about the MIC99 (Escherichia coli) of the same compound?
A: 100 µg/mL (≈ 188 µM)

Q: And the MIC99 (Streptococcus pyogenes)?
A: 250 µg/mL (≈ 470 µM)

Q: And the MIC99 (Candida albicans)?
A: 500 µg/mL (≈ 940 µM)

Q: And the MIC99 (Aspergillus clavatus)?
A: 1000 µg/mL (≈ 1880 µM)

Q: And the MIC99 (Pseudomonas aeruginosa)?
A: 250 µg/mL (≈ 470 µM)

Q: `C/C(=N\n1c(/N=C/c2ccc(O)cc2)c(C#N)c(-c2ccccc2O)c(C#N)c1=O)c1nc2ccccc2[nH]1` was tested. Which MIC99 (Staphylococcus aureus) did it give?
A: 250 µg/mL (≈ 487 µM)

Q: What about the MIC99 (Aspergillus niger) of the same compound?
A: 1000 µg/mL (≈ 1950 µM)

Q: What about the MIC99 (Escherichia coli) of the same compound?
A: 150 µg/mL (≈ 292 µM)

Q: And the MIC99 (Streptococcus pyogenes)?
A: 50 µg/mL (≈ 97.4 µM)

Q: And the MIC99 (Candida albicans)?
A: 500 µg/mL (≈ 974 µM)

Q: What about the MIC99 (Aspergillus clavatus) of the same compound?
A: 100 µg/mL (≈ 195 µM)

Q: And the MIC99 (Pseudomonas aeruginosa)?
A: 150 µg/mL (≈ 292 µM)

Q: For `COC1=CC(=O)C[C@@H](C)[C@]12Oc1c(Cl)c(OC)cc(OC)c1C2=O` [GRISEOFULVIN], which MIC99 (Aspergillus niger) is on record?
A: 100 µg/mL (≈ 283 µM)

Q: And the MIC99 (Candida albicans)?
A: 500 µg/mL (≈ 1420 µM)

Q: What about the MIC99 (Aspergillus clavatus) of the same compound?
A: 100 µg/mL (≈ 283 µM)

Q: How did the MIC99 (Staphylococcus aureus) turn out when `COc1cc(/C=N/c2c(C#N)c(-c3ccccc3O)c(C#N)c(=O)n2/N=C(\C)c2nc3ccccc3[nH]2)ccc1O` was run?
A: 250 µg/mL (≈ 460 µM)

Q: What about the MIC99 (Aspergillus niger) of the same compound?
A: 1000 µg/mL (≈ 1840 µM)

Q: And the MIC99 (Escherichia coli)?
A: 200 µg/mL (≈ 368 µM)

Q: And the MIC99 (Streptococcus pyogenes)?
A: 250 µg/mL (≈ 460 µM)

Q: What about the MIC99 (Candida albicans) of the same compound?
A: 1000 µg/mL (≈ 1840 µM)

Q: And the MIC99 (Aspergillus clavatus)?
A: 1000 µg/mL (≈ 1840 µM)

Q: What about the MIC99 (Pseudomonas aeruginosa) of the same compound?
A: 100 µg/mL (≈ 184 µM)

Q: `C/C(=N\n1c(/N=C/c2ccccc2Cl)c(C#N)c(-c2ccccc2O)c(C#N)c1=O)c1nc2ccccc2[nH]1` was tested. Which MIC99 (Staphylococcus aureus) did it give?
A: 100 µg/mL (≈ 188 µM)

Q: What about the MIC99 (Aspergillus niger) of the same compound?
A: 100 µg/mL (≈ 188 µM)

Q: And the MIC99 (Escherichia coli)?
A: 250 µg/mL (≈ 470 µM)

Q: What about the MIC99 (Streptococcus pyogenes) of the same compound?
A: 250 µg/mL (≈ 470 µM)

Q: What about the MIC99 (Candida albicans) of the same compound?
A: 1000 µg/mL (≈ 1880 µM)

Q: What about the MIC99 (Aspergillus clavatus) of the same compound?
A: 1000 µg/mL (≈ 1880 µM)

Q: What about the MIC99 (Pseudomonas aeruginosa) of the same compound?
A: 25 µg/mL (≈ 47 µM)

Q: What does the source list for `C/C(=N\n1c(/N=C/c2ccc([N+](=O)[O-])cc2)c(C#N)c(-c2ccccc2O)c(C#N)c1=O)c1nc2ccccc2[nH]1`?
A: MIC99 (Staphylococcus aureus): 250 µg/mL (≈ 461 µM); MIC99 (Aspergillus niger): 1000 µg/mL (≈ 1840 µM); MIC99 (Escherichia coli): 250 µg/mL (≈ 461 µM); MIC99 (Streptococcus pyogenes): 250 µg/mL (≈ 461 µM); MIC99 (Candida albicans): 500 µg/mL (≈ 922 µM); MIC99 (Aspergillus clavatus): 1000 µg/mL (≈ 1840 µM); MIC99 (Pseudomonas aeruginosa): 250 µg/mL (≈ 461 µM)

Q: With `CC1(C)S[C@@H]2[C@H](NC(=O)[C@H](N)c3ccccc3)C(=O)N2[C@H]1C(=O)O` [AMPICILLIN] as the compound, how does the MIC99 (Staphylococcus aureus) read?
A: 250 µg/mL (≈ 715 µM)

Q: What about the MIC99 (Escherichia coli) of the same compound?
A: 100 µg/mL (≈ 286 µM)

Q: And the MIC99 (Streptococcus pyogenes)?
A: 100 µg/mL (≈ 286 µM)

Q: And the MIC99 (Pseudomonas aeruginosa)?
A: 100 µg/mL (≈ 286 µM)

Q: With `C/C(=N\n1c(/N=C/c2ccccc2O)c(C#N)c(-c2ccccc2O)c(C#N)c1=O)c1nc2ccccc2[nH]1` as the compound, how does the MIC99 (Staphylococcus aureus) read?
A: 200 µg/mL (≈ 389 µM)

Q: And the MIC99 (Aspergillus niger)?
A: 1000 µg/mL (≈ 1950 µM)

Q: And the MIC99 (Escherichia coli)?
A: 150 µg/mL (≈ 292 µM)

Q: What about the MIC99 (Streptococcus pyogenes) of the same compound?
A: 200 µg/mL (≈ 389 µM)

Q: And the MIC99 (Candida albicans)?
A: 500 µg/mL (≈ 974 µM)

Q: What about the MIC99 (Aspergillus clavatus) of the same compound?
A: 1000 µg/mL (≈ 1950 µM)

Q: And the MIC99 (Pseudomonas aeruginosa)?
A: 150 µg/mL (≈ 292 µM)

Q: For `COc1cc(/C=N/c2c(C#N)c(-c3ccccc3O)c(C#N)c(=O)n2/N=C(\C)c2nc3ccccc3[nH]2)cc(OC)c1OC`, which MIC99 (Staphylococcus aureus) is on record?
A: 250 µg/mL (≈ 425 µM)

Q: What about the MIC99 (Aspergillus niger) of the same compound?
A: 1000 µg/mL (≈ 1700 µM)

Q: What about the MIC99 (Escherichia coli) of the same compound?
A: 200 µg/mL (≈ 340 µM)

Q: And the MIC99 (Streptococcus pyogenes)?
A: 500 µg/mL (≈ 851 µM)

Q: What about the MIC99 (Candida albicans) of the same compound?
A: 1000 µg/mL (≈ 1700 µM)

Q: What about the MIC99 (Aspergillus clavatus) of the same compound?
A: 100 µg/mL (≈ 170 µM)

Q: What about the MIC99 (Pseudomonas aeruginosa) of the same compound?
A: 250 µg/mL (≈ 425 µM)

Q: For `C/C(=N\n1c(/N=C/c2ccc(N(C)C)cc2)c(C#N)c(-c2ccccc2O)c(C#N)c1=O)c1nc2ccccc2[nH]1`, which MIC99 (Staphylococcus aureus) is on record?
A: 100 µg/mL (≈ 185 µM)

Q: What about the MIC99 (Aspergillus niger) of the same compound?
A: 500 µg/mL (≈ 925 µM)

Q: What about the MIC99 (Escherichia coli) of the same compound?
A: 62.5 µg/mL (≈ 116 µM)

Q: What about the MIC99 (Streptococcus pyogenes) of the same compound?
A: 100 µg/mL (≈ 185 µM)

Q: What about the MIC99 (Candida albicans) of the same compound?
A: 200 µg/mL (≈ 370 µM)

Q: And the MIC99 (Aspergillus clavatus)?
A: 500 µg/mL (≈ 925 µM)

Q: What about the MIC99 (Pseudomonas aeruginosa) of the same compound?
A: 100 µg/mL (≈ 185 µM)

Q: With `C/C(=N\n1c(/N=C/c2cccc([N+](=O)[O-])c2)c(C#N)c(-c2ccccc2O)c(C#N)c1=O)c1nc2ccccc2[nH]1` as the compound, how does the MIC99 (Staphylococcus aureus) read?
A: 200 µg/mL (≈ 369 µM)

Q: What about the MIC99 (Aspergillus niger) of the same compound?
A: 1000 µg/mL (≈ 1840 µM)

Q: What about the MIC99 (Escherichia coli) of the same compound?
A: 500 µg/mL (≈ 922 µM)

Q: What about the MIC99 (Streptococcus pyogenes) of the same compound?
A: 200 µg/mL (≈ 369 µM)

Q: What about the MIC99 (Candida albicans) of the same compound?
A: 500 µg/mL (≈ 922 µM)

Q: What about the MIC99 (Aspergillus clavatus) of the same compound?
A: 1000 µg/mL (≈ 1840 µM)

Q: What about the MIC99 (Pseudomonas aeruginosa) of the same compound?
A: 500 µg/mL (≈ 922 µM)

Q: With `C/C(=N\n1c(/N=C/c2ccccc2)c(C#N)c(-c2ccccc2O)c(C#N)c1=O)c1nc2ccccc2[nH]1` as the compound, how does the MIC99 (Staphylococcus aureus) read?
A: 250 µg/mL (≈ 502 µM)

Q: And the MIC99 (Aspergillus niger)?
A: 100 µg/mL (≈ 201 µM)

Q: And the MIC99 (Escherichia coli)?
A: 100 µg/mL (≈ 201 µM)

Q: And the MIC99 (Streptococcus pyogenes)?
A: 100 µg/mL (≈ 201 µM)

Q: What about the MIC99 (Candida albicans) of the same compound?
A: 200 µg/mL (≈ 402 µM)

Q: And the MIC99 (Aspergillus clavatus)?
A: 200 µg/mL (≈ 402 µM)

Q: And the MIC99 (Pseudomonas aeruginosa)?
A: 50 µg/mL (≈ 100 µM)
